Results taken from patent publication US20030171218A1, “Substituted 3-heteroaryl(amino- or oxy)pyrrolidin-2-ones, their preparation and use as herbicides or plant growth regulators” (priority 2001, published 2003).

How the values were obtained:
[1] = tested on: weed plants such as Digitaria sanguinalis, Echinochloa crus-galli, Setaria faberi, Setaria viridis, Sorghum halepense, Abutilon theophrasti, Amaranthum …; assay: Pre-emergence effect on weeds (greenhouse pot test); assay type: in vivo, monocotyledonous and dicotyledonous weed plants; settings: application rate of 1 kg or less of active substance per hectare; scored visually after 3 to 4 weeks by comparison with untreated controls
Excerpt: Seeds or rhizome pieces of monocotyledonous and dicotyledonous weed plants are placed in sandy loam soil in plastic pots and covered with soil. The compounds according to the invention which are formulated in the form of wettable powders or emulsion concentrates are then applied to the surface of the soil cover in the form of aqueous suspensions or emulsions at an application rate of 600 to 800 l of water/ha (converted), in various dosages.
After the treatment, the pots are placed in a greenhouse and kept under good growth conditions for the weeds. After the test plants have emerged, the damage to the plants or the negative effect on the emergence is scored visually after a test period of 3 to 4 weeks by comparison with untreated controls. As shown by the test results, compounds according to the invention have good herbicidal pre-emergence activity against a broad spectrum of weed grasses and broad-leafed weeds.

[2] = tested on: harmful plants such as Digitaria sanguinalis, Echinochloa crus-galli, Setaria faberi, Setaria viridis, Sorghum halepense, Abutilon theophrasti, Amaranthum …; assay: Post-emergence effect on weeds (greenhouse pot test); assay type: in vivo, monocotyledonous and dicotyledonous weeds; settings: application rate of 1 kg and less of active substance per hectare; treated at three-leaf stage; scored visually after about 3 to 4 weeks by comparison with untreated controls
Procedure: Seeds or rhizome pieces of monocotyledonous and dicotyledonous weeds are placed in sandy loam soil in plastic pots, covered with soil and grown in a greenhouse under good growth conditions. Three weeks after sowing, the test plants are treated at the three-leaf stage. The compounds according to the invention which were formulated as wettable powders or emulsion concentrates are sprayed, at various dosages, onto the green parts of the plants at an application rate of 600 to 800 l of water/ha (converted). After the test plants have remained in the greenhouse for about 3 to 4 weeks under optimum growth conditions, the effect of the preparations is scored visually by comparison with untreated controls. The agents according to the invention also have good herbicidal activity post-emergence against a broad spectrum of economically important weed grasses and broad-leafed weeds.

SMILES | herbicidal activity pre-emergence [1] | herbicidal activity post-emergence [2]
CC(C)c1nc(N)nc(NC2CCN(c3cccc(Cl)c3)C2)n1 (stereo not shown) [Example E18] | very good herbicidal activity | very good herbicidal activity
Cc1cc(C)cc(N2CCC(Nc3nc(N)nc(C(C)C)n3)C2)c1 (stereo not shown) [Example E27] | very good herbicidal activity | very good herbicidal activity
CC(F)c1nc(N)nc(OC2CCN(c3cccc(OC(F)(F)F)c3)C2=O)n1 (stereo not shown) [Example A42] | very good herbicidal activity | very good herbicidal activity
Cc1cc(N2CCC(Nc3nc(N)nc(C(C)F)n3)C2)ccc1F (stereo not shown) [Example E11] | very good herbicidal activity | very good herbicidal activity
CC(F)c1nc(N)nc(OC2CCN(c3cccc(C(F)(F)F)c3)C2=O)n1 (stereo not shown) [Example A37] | very good herbicidal activity | very good herbicidal activity
CC(F)c1nc(N)nc(N(C)C2CCN(c3cccc(C(F)(F)F)c3)C2=O)n1 (stereo not shown) [Example A64] | very good herbicidal activity | very good herbicidal activity
CC(C)c1nc(N)nc(OC2CCN(c3cccc(F)c3)C2=O)n1 (stereo not shown) [Example A53] | very good herbicidal activity | very good herbicidal activity
CC(F)c1nc(N)nc(NC2CCN(c3cccc(OC(F)(F)F)c3)C2)n1 (stereo not shown) [Example E23] | very good herbicidal activity | very good herbicidal activity
Cc1nc(N)nc(NC2CCN(c3cccc(Cl)c3)C2=O)n1 (stereo not shown) [Example A9] | very good herbicidal activity | very good herbicidal activity
Cc1cc(N2CCC(Oc3nc(N)nc(C(C)F)n3)C2=O)ccc1F (stereo not shown) [Example A40] | very good herbicidal activity | very good herbicidal activity
CC(C)c1nc(N)nc(OC2CCN(c3cccc(Cl)c3)C2=O)n1 (stereo not shown) [Example A52] | very good herbicidal activity | very good herbicidal activity
CC(F)c1nc(N)nc(NC2CCN(c3cccc(Cl)c3)C2=O)n1 (stereo not shown) [Example A18] | very good herbicidal activity | very good herbicidal activity
CN(c1nc(N)nc(C(C)(C)F)n1)C1CCN(c2cccc(OC(F)(F)F)c2)C1 (stereo not shown) [Example E49] | very good herbicidal activity | very good herbicidal activity
CC(C)c1nc(N)nc(NC2CCN(c3cccc(OC(F)(F)F)c3)C2)n1 (stereo not shown) [Example E24] | very good herbicidal activity | very good herbicidal activity
Cc1cc(N2CCC(Oc3nc(N)nc(C(C)C)n3)C2=O)ccc1F (stereo not shown) [Example A49] | very good herbicidal activity | very good herbicidal activity
CC(F)c1nc(N)nc(N(C)C2CCN(c3cccc(OC(F)(F)F)c3)C2=O)n1 (stereo not shown) [Example A63] | very good herbicidal activity | very good herbicidal activity
CC(C)(F)c1nc(N)nc(NC2CCN(c3cccc(F)c3)C2=O)n1 (stereo not shown) [Example A28] | very good herbicidal activity | very good herbicidal activity
Cc1cc(C)cc(N2CCC(Nc3nc(N)nc(C(C)(C)F)n3)C2=O)c1 (stereo not shown) [Example A34] | very good herbicidal activity | very good herbicidal activity

SMILES | herbicidal activity pre-emergence [1] | herbicidal activity post-emergence [2]
CC(C)c1nc(N)nc(N(C)C2CCN(c3cccc(Cl)c3)C2)n1 (stereo not shown) [Example E73] | very good herbicidal activity | very good herbicidal activity
Cc1cc(N2CCC(N(C)c3nc(N)nc(C(C)(C)F)n3)C2=O)ccc1F (stereo not shown) [Example A83] | very good herbicidal activity | very good herbicidal activity
COc1cccc(N2CCC(Nc3nc(C)nc(N)n3)C2=O)c1 (stereo not shown) [Example A7] | very good herbicidal activity | very good herbicidal activity
Cc1cc(C)cc(N2CCC(Nc3nc(N)nc(C(C)C)n3)C2=O)c1 (stereo not shown) [Example A23] | very good herbicidal activity | very good herbicidal activity
CC(F)c1nc(N)nc(NC2CCN(c3cccc(F)c3)C2=O)n1 (stereo not shown) [Example A10] | very good herbicidal activity | very good herbicidal activity
CC(F)c1nc(N)nc(NC2CCN(c3cccc(F)c3)C2)n1 (stereo not shown) [Example E14] | very good herbicidal activity | very good herbicidal activity
CN(c1nc(N)nc(C(C)(C)F)n1)C1CCN(c2cccc(C(F)(F)F)c2)C1=O (stereo not shown) [Example A81] | very good herbicidal activity | very good herbicidal activity
Cc1cc(N2CCC(N(C)c3nc(N)nc(C(C)C)n3)C2=O)ccc1F (stereo not shown) [Example A73] | very good herbicidal activity | very good herbicidal activity
CC(C)c1nc(N)nc(N(C)C2CCN(c3cccc(Cl)c3)C2=O)n1 (stereo not shown) [Example A72] | very good herbicidal activity | very good herbicidal activity
Cc1nc(N)nc(NC2CCN(c3cccc(F)c3)C2=O)n1 (stereo not shown) [Example A1] | very good herbicidal activity | very good herbicidal activity
Cc1cc(C)cc(N2CCC(N(C)c3nc(N)nc(C(C)F)n3)C2=O)c1 (stereo not shown) [Example A65] | very good herbicidal activity | very good herbicidal activity
CC(F)c1nc(N)nc(NC2CCN(c3cccc(C(F)(F)F)c3)C2=O)n1 (stereo not shown) [Example A12] | very good herbicidal activity | very good herbicidal activity
CN(c1nc(N)nc(C(C)(C)F)n1)C1CCN(c2cccc(Cl)c2)C1 (stereo not shown) [Example E55] | very good herbicidal activity | very good herbicidal activity
CC(C)c1nc(N)nc(OC2CCN(c3cccc(C(F)(F)F)c3)C2=O)n1 (stereo not shown) [Example A46] | very good herbicidal activity | very good herbicidal activity
Cc1nc(N)nc(NC2CCN(c3ccc(F)c(C)c3)C2=O)n1 (stereo not shown) [Example A6] | very good herbicidal activity | very good herbicidal activity
Cc1cccc(N2CCC(Nc3nc(N)nc(C(C)F)n3)C2)c1 (stereo not shown) [Example E8] | very good herbicidal activity | very good herbicidal activity
CC(C)c1nc(N)nc(OC2CCN(c3ccccc3)C2=O)n1 (stereo not shown) [Example A45] | very good herbicidal activity | very good herbicidal activity
